# Data: article PMC11243419, “Ruthenium p-Cymene Complexes Incorporating Substituted Pyridine–Quinoline-Based Ligands: Synthesis, Characterization, and Cytotoxic Properties” (Molecules, 2024)
# Read-outs that look alike come from different tables or passages of the source.
# Experiments:
# [1] = Solution stability by 1H NMR spectroscopy; format: physicochemical
# Source text: The solution NMR spectra (^1H and ^13C{^1H}) of 1-Cl and 1-PF6 in CDCl3 feature the characteristic set of resonances of the pqhyme and p-cymene ligands supporting the proposed formulae of the compounds (Figures S2–S5 of the Supplementary Materials). Atom numbering for NMR assignment is included in Scheme 1. […] The separate and well-resolved resonance signals at δ 5.92–5.61 in a ratio of 1:1:1:1 (according to integration) are typical of the p-cymene ring protons. The characteristic singlet resonance signals at δ 5.47 for 1-Cl and 5.48 for 1-PF6 are attributed to the -CH2 protons of the pending -CH2OH moiety. These were upfield shifted compared to the p-cymene ligand of the metal precursor [43]. In addition, the septet resonance signals at δ 2.29 for 1-Cl and δ 2.44 for 1-PF6 are indicative of the -CH(CH3)2 proton, while the two […] at δ 0.87/0.91 (1-Cl) and δ 0.93/0.97 (1-PF6) can be assigned to the methyl protons of the isopropyl group. For 1-Cl, and after two days of standing in CDCl3, free p-cymene was detected (c.a. 2.6%) along with the formation of new unknown species. The ^1H NMR pattern of the spectrum remained practically unchanged (Figure S7).
# The ^1H NMR spectrum of 2-Cl was recorded in DMSO-d6 at ambient temperature. […] The stability of 2-Cl in DMSO is shown below in Section 2.1.1. […] The singlet resonance at δ 8.94 is typical for H3 of the bidentate ligand, while the four separate doublet resonance signals in between δ 6.19, 6.13, 6.03, and 5.97 correspond to the p-cymene ring protons. […] In this region, the CH3 protons of the -CH-(CH3)2 moiety appear as two doublet resonances at δ 0.81 and 0.77, respectively. The ^13C NMR signals of 2-Cl were assigned by two-dimensional ^1H–^13C HSQC and ^1H–^13C HMBC methods and compared with the literature data from similar complexes. […] Analyzing the spectrum, the resonance signal at δ 166.31 is assigned to the carbon atom of the carboxylic acid group of pqca. In the aliphatic region of the spectrum, the carbon atoms from the CH3 groups of p-cymene ligand appear as intense singlets at δ 21.58, 21.21, and 18.18, respectively (Figures S12–S15).
# (§1) The cytotoxicity studies of the organometallic ruthenium(II) complexes 1-Cl, 2-Cl, and 3-PF6 were carried out in dimethyl sulfoxide (DMSO) while 3-Cl was dissolved in water. According to UV–Vis spectroscopy, complexes 1-Cl and 2-Cl are stable in the media that are used for the biological assays (Figures S25–S26), while 3-Cl undergoes hydrolysis approximately 3 h after with isosbestic points at 276 nm and 322 nm, respectively (Figure S27). […] In any case, for the biological assays, freshly prepared solutions were prepared that were utilized within approximately 5–10 min.
# [2] = Solubility (qualitative); format: physicochemical; settings: solvents
# Protocol: The mononuclear organometallic complex 1-Cl comprising the pqhyme ligand was isolated as an orange–brown solid in high yield. […] Subsequent treatment with a saturated aqueous KPF6 solution afforded, via a metathesis reaction, the hexafluorido analog 1-PF6. Both complexes are air-stable in the solid state and melt with decomposition at 155 °C and 137 °C, respectively. The FT-IR spectra (ATR mode) of both complexes are almost identical, as expected for complexes that display very similar structures. For 1-Cl the presence of water of crystallization is evident from the intense and broad bands at ∼3350–3250 cm^−1 due to the antisymmetric and symmetric ν(O-H) stretching vibration modes. The O–H stretching vibration band from pending -CH2OH moiety is hampered within the broadness of the band reported above. Also, the strong band at approximately 1650 cm^−1 is due to the δ(H–O-H) bending mode. The characteristic bands at 3061 cm^−1, and in the region of 2998–2850 cm^−1 correspond to ν(C–H) aromatic and aliphatic stretching vibrations modes of the ligand, while the medium intensity band at ∼800 cm^−1 is typical for the stretching vibration mode of ν(Ru–C). In the region of 800-600 cm^−1, the spectrum is dominated by the very strong in-plane and out-of-plane deformation bands from the pyridine ring of pqhyme ligand. For 1-PF6, the two very strong bands at 840 cm^−1 and 557 cm^−1 are assigned to the ν3(P–F) and ν4(P–F) vibration modes of the PF6^− anion (Figure S1 of the Supplementary Materials).
# The [Ru(η^6-p-cymene)(pqca)Cl]Cl complex 2-Cl was isolated in 85% yield as an orange–red air-stable solid that melts at 125 °C. Upon further heating, decomposition occurs at 150 °C, accompanied by gas evolution, leading to a black solid.
# The [Ru(η^6-p-cymene)(pqcame)Cl]Cl analog 3-Cl was isolated almost quantitatively as a dark brown air-stable solid that decomposes at 111 °C. […] The FT-IR spectrum of 3-Cl is characterized by a strong asymmetric stretching vibration typical of the νas(C=O) of the ester moiety at 1722 cm^−1, shifted to higher wave numbers compared with 2-Cl. […]
# [3] = Solution stability by UV-Vis spectroscopy; format: physicochemical; settings: for Stability in the media used for the biological assays (UV-Vis): DMSO, ambient temperature
# Protocol: To ensure the stability of the complexes for the in vitro cytotoxicity measurements, UV–Vis and ^1H NMR spectroscopic techniques were undertaken. UV–Vis spectra were recorded in DMSO (not dry), for complexes 1-Cl and 2-Cl (Figures S25–S27) and in water for complex 3-Cl (Figure 3), at ambient temperature, immediately after dissolution. The absorption spectra of 1-Cl and 2-Cl show a broad absorption band centered at ~ 435 nm, as reported for other ruthenium(II) half-sandwich arene complexes. For 3-Cl, this band becomes weaker and is blue-shifted to 422 nm. Ongoing from 1-Cl to 3-Cl, the set of high energy bands observed at 354 nm/296 nm (1-Cl), 357 nm/298 nm (2-Cl), and 357 nm/293 nm (3-Cl), are typical of metal-to-ligand charge transfer absorption bands (MLCT) and ligand-centered π–π* transitions. Within the series, ε values for these transitions range from 3000 to 9600 dm^3 mol^−1 cm^−1, with the methyl ester analog 3-Cl, displaying the higher extinction coefficient value of ∼9600 dm^3 mol^−1 cm^−1.
# as §1
# [4] = test system: HeLa cells; assay: MTT cell viability assay, HeLa cells; format: cell-based, human; settings: 48 h incubation, mean ± SD, stock in DMSO (3-Cl and cisplatin in water)
# Protocol: (§2) Cell viability tests of the ligand and metal precursors (pqhyme, pqca, pcqame, [Ru(η^6-p-cymene)(μ-Cl)Cl]2) and the ruthenium(II)–arene complexes 1-Cl, 2-Cl and 3-Cl were conducted in two cell lines, including epithelial-like HEK293T cells (human embryonic kidney cells) and tumor-derived HeLa cells (cervical cancer cells), by MTT colorimetric assay, after 48 h incubation (MTT = 3-(4,5-dimethylthiazol-2-yl)-2,5-diphenyl tetrazolium bromide). For comparison, the 3-PF6 analog was also studied. Generally, a 5 to 10 mM stock solution of the complexes in DMSO (H2O for cisplatin) was prepared and diluted appropriately to reach the final concentration reported in the Materials and Methods. HeLa cancer cells were chosen since this cell line is widely used in cytotoxicity studies while the non-cancerous HEK293T cell line was used for comparison. Cytotoxicity results of all substances studied in both cell lines expressed as IC50 mean values, are summarized in Table 1, including that of cisplatin, which served as control under the same conditions. The IC50 values were calculated using a dose–response model, which was obtained from sigmoidal fitting of dose–response curves.
# (§3) The HEK293T cell line (immortalized human embryonic kidney cells) and the HeLa cell line (cervical cancer cells) were obtained from ATCC. Cells were cultured at 37 °C and 5% CO2 in high glucose Dulbecco’s modified Eagle’s medium (DMEM) containing 10% fetal bovine serum (FBS), penicillin (100 units/mL), and streptomycin (100 μg/mL).
# (§4) Ruthenium complexes were diluted in stock solutions of 10 mM in dimethyl sulfoxide (DMSO). A similar concentration of cisplatin dissolved in H2O was used. Cells were seeded in sterile tissue culture 96-well plates at a density of 3,000 cells per well. After 24 h, the medium was removed and replaced with fresh media containing various concentrations (0.01 μΜ, 0.1 μΜ, 1 μΜ, 10 μΜ, 25 μΜ, 40 μΜ, 55 μΜ, 70 μΜ, 85 μΜ, and 100 μΜ) of the compounds to be tested and were further incubated for 48 h at 37 °C. DMSO was used as vehicle at ≤1%. Culture medium containing the compounds (or DMSO) was removed and 100 μL of 0.5 mg/mL MTT reagent (Applichem) diluted in DMEM was added to the cells for 3 h at 37 °C. After 3 h incubation, MTT was removed and 200 μL of DMSO was added. Absorbance values of formazan were measured at 540 nm using a BioTek Synergy H1 microplate reader (Agilent). All compounds were tested in triplicate. The results were statistically analyzed using the nonlinear regression by GraphPad PRISM (Version 9) to extract IC50 values.
# [5] = test system: HeLa cells; settings: cited from earlier work
# [6] = test system: carcinoma human T24 bladder cells; parameters: method as in PMID 37569273; settings: T24 bladder cells vs other cell lines; cited from earlier work
# [7] = test system: HEK293T cells; assay: MTT cell viability assay, HEK293T cells; format: cell-based, human; settings: 48 h incubation, mean ± SD, stock in DMSO (3-Cl and cisplatin in water)
# Protocol: as §2, §3, §4
molecule,measurement,setting,value
[Ru(η^6-p-cymene)(pqhyme)Cl][Cl] [1-Cl],Stability in DMSO-d6 (1H NMR),[1]; DMSO-d6,stable
same,Free p-cymene detected (1H NMR),[1]; after two days of standing in CDCl3,~2.6%
same,Solubility,[2],"dissolves in DMSO, and water and is less soluble in CHCl3"
same,Stability in the media used for the biological assays (UV-Vis),[3],stable
same,IC50,[4],119 ± 1.29 µM
Cc1ccc(C(C)C)cc1.Nc1ccc(O)cc1.[Cl][Ru][Cl],IC50,[5],171 µM
Cc1ccc(C(C)C)cc1.O=C(O)c1ccnc(-c2cc(C(=O)O)ccn2)c1.[Cl-].[Cl-].[Ru+2],Selectivity among cell lines,[6],high selectivity toward carcinoma human T24 bladder cells
[Ru(η^6-p-cymene)(pqca)Cl][Cl] [2-Cl],Period of 1H NMR monitoring showing stability,[1]; DMSO-d6,more than 72 h
same,Stability in DMSO-d6 (1H NMR),[1]; DMSO-d6,practically remains stable
same,Solubility,[2],"soluble in polar organic solvents (MeOH, EtOH, water) including DMSO and DMF"
same,Stability in the media used for the biological assays (UV-Vis),[3],stable
same,IC50,[4],162 ± 21.3 µM
same,IC50,[7],180 ± 49.1 µM
[Ru(η^6-p-cymene)(pqcame)Cl][PF6] [3-PF6],IC50,[4],134 ± 3.3 µM
same,IC50,[7],145 ± 16.2 µM
"OCc1cc(-c2ccccn2)nc2ccccc12 [pqhyme, 4-hydroxymethyl-2-(pyridin-2-yl)quinoline]",IC50,"[4]; Homo sapiens, HeLa",12.8 ± 1.01 µM
same,IC50,"[7]; Homo sapiens, HEK-293T",2.67 ± 1.23 µM
4-carboxymethyl-2-(pyridin-2-yl)quinoline [pqcame],IC50,[4],56.4 ± 12.7 µM
same,IC50,[7],48.9 ± 3.19 µM
"O=C(O)c1cc(-c2ccccn2)nc2ccccc12 [pqca, 4-carboxy-2-(pyridin-2-yl)quinoline]",IC50,"[4]; Homo sapiens, HeLa",100 ± 3.47 µM
same,IC50,"[7]; Homo sapiens, HEK-293T",87.5 ± 1.3 µM
Cc1ccc(C(C)C)cc1.Nc1ccccc1O.[Cl][Ru][Cl],IC50,[5],82.9 µM
"Cc1ccc(C(C)C)cc1.Cc1ccc(C(C)C)cc1.[Cl][Ru][Cl].[Cl][Ru][Cl] [[Ru(p-cymene)Cl2]2, [Ru(η^6-p-cymene)(μ-Cl)Cl]2]",IC50,[4],48.9 ± 1.73 µM
same,IC50,[7],48.3 ± 1.66 µM
"N.N.[Cl][Pt][Cl] [cis-platin, cisplatin, reference compound]",IC50,[4],9.26 ± 1.09 µM
same,IC50,[7],16.4 ± 7.62 µM
[Ru(η^6-p-cymene)(pqcame)Cl][Cl] [3-Cl],Solubility,[2],"dissolves in water, DMSO, and other polar solvents"
same,"Time until hydrolysis (UV-Vis, isosbestic points at 276 nm and 322 nm)",[3]; in water,approximately 3 h
same,IC50,[4],> 80 µM
same,IC50,[7],> 115 µM
